Where a SMILES comes first, the peptide text is derived from it. Where no end group is shown, it is not given here.
Key:
[1] = tested on: human natural killer (NK) cell-induced cytotoxicity against K562 human erythroleukemia cells; assay: natural killer (NK) cell assay, chromium 51 release; format: cell-based
Protocol: 1. To calculate percent inhibition, the average of the three dilutions of
2. N K effector cells were human mononuclear cells freshly isolated by
when incubated with normal human mononuclear cells (lymphocytes and monocytes) separated by ficoll-metronidazole gradient. […] E., et al., J. Clin. Invest. 67:1324, 1981).
The target cells used were a human erythroleukemia cell line K562 which has molecular structures recognized by NK cells. The K562 targets were prepared by incubating them with the radioactive isotope chromium 51 which is incorporated within the cells. The cells were then washed to remove externally adherent chromium 51 and 20,000 K562 cells were added to 400,000, 200,000 and 100,000 mononuclear cells to provide NK killer-to-target ratio of 20 to 1, 10 to 1, and 5 to 1, respectively, in a final volume of 200 microliters. After a 3-hour incubation at 37° C. in a 5% CO2 atmosphere, the amount of chromium 51 in the supernatent (released from dead target cells) was counted to quantitate the amount of NK killing activity. The killing activity of peptide-treatedcells was compared to non-peptide treated cells to assess the peptide's effect on NK killing activity.

[2] = target: T1, IgE Fc receptors on a human lymphoblastoid cell line (wil-2wt) (Homo sapiens, UniProt P06734); settings: Hamburger, Immunology 38, 781 (1979); cited from earlier work
T1 construct: IgE Fc receptors on a human lymphoblastoid cell line (wil-2wt); host or cells: wil-2wt human lymphoblastoid cell line (endogenous receptor)
T1 sequence (P06734 1-321): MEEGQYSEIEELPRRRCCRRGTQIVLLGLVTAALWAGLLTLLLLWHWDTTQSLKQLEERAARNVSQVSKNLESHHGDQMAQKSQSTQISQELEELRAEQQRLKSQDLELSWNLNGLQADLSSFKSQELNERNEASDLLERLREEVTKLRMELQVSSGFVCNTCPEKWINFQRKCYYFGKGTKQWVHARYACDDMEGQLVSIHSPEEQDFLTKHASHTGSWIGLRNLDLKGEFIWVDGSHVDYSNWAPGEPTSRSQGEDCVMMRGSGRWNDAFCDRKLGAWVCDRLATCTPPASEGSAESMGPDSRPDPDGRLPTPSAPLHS

rodent mast cells = settings: Stanworth et al. 1979; cited from earlier work
human mast cells = settings: Stanworth et al. 1979; cited from earlier work
[3] = tested on: human monocyte IgG Fc receptors; settings: cited from earlier work
mouse macrophages = settings: Stanworth, Mol. Immunol. 19, 1245 (1982); cited from earlier work
[4] = tested on: macrophage IgG Fc receptors of mice; settings: Stanworth, Mol. Immunol. 19, 1245 (1982); cited from earlier work
[5] = peptide 100 μg/ml, (killer-to-target ratio 20 to 1)

Molecule	% cytotoxicity ([1]; peptide 25 μg/ml, 5 to 1) [%]	% cytotoxicity ([1]; peptide 25 μg/ml, 10 to 1) [%]	% cytotoxicity ([1]; peptide 25 μg/ml, 20 to 1) [%]	% cytotoxicity ([1]; peptide 50 μg/ml, 5 to 1) [%]	% cytotoxicity ([1]; peptide 50 μg/ml, 10 to 1) [%]	% cytotoxicity ([1]; peptide 50 μg/ml, 20 to 1) [%]	% cytotoxicity ([1]; peptide 100 μg/ml, 5 to 1) [%]	% cytotoxicity ([1]; peptide 100 μg/ml, 10 to 1) [%]	% cytotoxicity [1, 5] [%]	other results
C[C@H](N)C(=O)N[C@@H](CCCNC(=N)N)C(=O)N[C@@H](Cc1c[nH]cn1)C(=O)N[C@@H](CO)C(=O)O [Ala--Arg--His--Ser, Ala-Arg-His-Ser] (H-ARHS-OH)	12.5	19.4	24.8	10.4	20.7	26.3	10.6	18.5	21.8	–
C[C@H](NC(=O)[C@@H](N)CC(=O)O)C(=O)N[C@@H](CCCNC(=N)N)C(=O)N[C@@H](Cc1c[nH]cn1)C(=O)O [Asp--Ala--Arg--His, Asp-Ala-Arg-His] (H-DARH-OH)	6.8	12.9	19.3	7.5	12.8	13.8	10.5	16.4	24.5	–
C[C@H](NC(=O)[C@H](CC(=O)O)NC(=O)[C@@H]1CCCN1)C(=O)N[C@@H](CCCNC(=N)N)C(=O)O [Pro--Asp--Ala-- Arg, Pro-Asp-Ala-Arg] (H-PDAR-OH)	10.1	17.8	22.7	10.3	15.5	23.1	5.6	10.4	17.1	–
PDARHS [hexapeptide derived from Cε 4 at aa 476-481]	–	–	–	–	–	–	–	–	–	blocking of human IgE-binding to IgE Fc receptors on wil-2wt cells [2]: could block
PRKTKGSGFFVF [peptide identical to portion of Cε 4 of human IgE, aa 495-506]	–	–	–	–	–	–	–	–	–	degranulation of rodent mast cells (rodent mast cells): able to cause degranulation; degranulation of human mast cells (human mast cells): able to cause degranulation
QYDSTYR [peptide identical to IgG aa 295-301]	–	–	–	–	–	–	–	–	–	blocking of IgG binding to human monocyte IgG Fc receptors [3]: could slightly block
VFSRLEVTRAE [peptide identical to a portion of Cε 4 of human IgE at aa 505-515]	–	–	–	–	–	–	–	–	–	effect on binding of 125I-human IgG to mouse macrophages (mouse macrophages): marked enhancement
YSKLTVDKSR [decapeptide from human IgG, identical to IgG aa 407-416]	–	–	–	–	–	–	–	–	–	blocking of human IgG binding to macrophage IgG Fc receptors of mice [4]: blocked human IgG binding
